Source: PMC4773904 (The New England journal of medicine, 2015)

Key:
[1] = tested on: metastatic ALK-rearranged NSCLC; assay: Case report: treatment course of a patient with metastatic ALK-rearranged NSCLC; type: in vivo, human; conditions: first restaging CT after 5 weeks of treatment, phase 1 trial, single patient
[2] = tested on: Ba/F3 cells expressing EML4-ALK L1198F; assay: Ba/F3 cell-survival assay; type: cell-based
[3] = tested on: Ba/F3 cells expressing EML4-ALK C1156Y–L1198F; assay: Ba/F3 cell-survival assay; type: cell-based
ALK = conditions: in cell lines; cited from earlier work
previously treated NSCLC = conditions: patients with previously treated NSCLC, phase 3 trial; cited from earlier work

| SMILES | Reduction in tumor burden [1] | Sensitivity in cell-survival assay (in words) [2] | Sensitivity in cell-survival assay (in words) [3] | Potency against ALK (ALK) | Response rate (previously treated NSCLC) |
| --- | --- | --- | --- | --- | --- |
| C[C@H]1Oc2cc(cnc2N)-c2c(nn(C)c2C#N)CN(C)C(=O)c2ccc(F)cc21 [lorlatinib, (10R)-7-amino-12-fluoro-2,10,16-trimethyl-15-oxo-10,15,16,17-tetrahydro-2H-8,4-(metheno)pyrazolo [4,3-h][2,5,11]-benzoxadiazacyclotetra decine-3-carbonitrile] | 41% | variable degrees of resistance | resistant | subnanomolar to low nanomolar | – |
| CCC1=C[C@@H]2CN(C1)Cc1c([nH]c3ccccc13)[C@@](C(=O)OC)(c1cc3c(cc1OC)N(C)[C@H]1[C@@](O)(C(=O)OC)[C@H](OC(C)=O)[C@]4(CC)C=CCN5CC[C@]31[C@@H]54)C2 [vinorelbine] | – | – | – | – | 0.8% |
